From patent US20020183290A1, “Adrenergic receptor antagonists selective for both alpha1A-and alpha1D-subtypes and uses therefor” (Recordati S.A., Chemical and Pharmaceutical Company, priority 2001, published 2002)
Where two headings read alike, the source gives them in different places.

How the values were obtained:
LUTS = LUTS secondary to BPH; relaxing effects on prostate smooth muscle were present; cited from earlier work
[1] = tested on: conscious rats with partial urethral obstruction; experiment: Cystometry in conscious rats obstructed by partial urethra ligature (unstable-bladder contractions); type: in vivo, rat; details: for inhibition in vivo at 1 mg/kg: Rattus norvegicus, 2 min
From the text: A useful animal model system for measuring such pharmacological activity is, without limitation, cystometry in conscious rats with partial bladder-neck obstruction. […] This model is reported in the literature as related to LUTS occurring in patients having obstructive urethral syndromes (Michel, 2000, Drugs of Today. 386 (Supp. B2): 3-6)
In order to obtain a partial obstruction of the urethra, the method previously reported by Malgren (Nalgren et al., 1987, J. Urol. 137:1291-1294; 1988, Neurourol. Urodyn. 6:371), was followed with minor modifications (Guarneri et al., 1991, Pharmacol. Res. 24:263).
Female rats of the Sprague-Dawley strain [Crl:CD(SD)BR, from Charles River Italia, Calco, Como, Italy] weighing 225-275 g were used. The animals were maintained in constant temperature and humidity conditions, on a forced 12-hour light-dark cycle and with food and water ad libitum for at least one week before the experiment.
After being anaesthetized with 3 ml/kg i.p. equitensin (pentobarbital 1.215 g, chloral hydrate 5.312 g, magnesium sulphate 2.657 g, ethanol 12.5 ml, propylene glycol 49.5 ml, distilled water to 125 ml of final volume), the rats were placed in a supine position and the bladder and urethra were exposed via an incision in the shaven abdomens and gently pulling away the muscle portion. The urethra was cannulated with a polyethylene tube with an outside diameter of 1.22 mm, and the urinary bladder was then emptied and, via the cannula introduced through the urethra, filled with physiological saline. A silk (Ethicon 3/0) ligature was placed around the urethra with the cannula inside and the intraurethral cannula was then removed. The abdominal incision was sutured and, immediately after the operative procedure, antibiotic medication (penicillin G 200 000 I.U./kg i.p. and streptomycin 260 mg/kg i.p.) was performed.
Three weeks after the procedure for partially obstructing the urethra, the animals were prepared for cystometry by surgical insertion into the bladder of a catheter, through which the bladder was gradually filled.
The rats, anaesthetised with equitensin 3 ml/kg i.p., were placed in a supine position and, via an incision of about 10 mm in the abdominal wall, the urinary bladder was exposed and gently freed from surrounding tissues.
The urinary bladder was emptied manually and cannulated, via a small incision at the bladder top, with a polyethylene cannula (type PE-50, 0.58 mm I.D. ×0.96 mm O.D.), which was permanently secured to the bladder with silk thread.
The cannula was exposed through a subcutaneous tunnel in the retroscapular area, where it was fastened with a plastic adapter, in order to avoid the risk of removal by the animal. After washing the urinary bladder with physiological saline, the catheter was sealed using a small flame and the abdominal incision was sutured.
To allow evaluation of the effect of a test compound after intravenous administration, the jugular vein was cannulated with a polyethylene cannula (type PE-50, 0.58 mm I.D.×0.96 mm O.D.) filled with heparinised physiological saline. As for the bladder catheter, this cannula, too, was exteriorised, secured and sealed in the retroscapular area.
Two days after the operation, the rats, fasted overnight, were placed in Bollman's cages or in Bollman's cages modified so as to have an opening in the bottom to allow collection of urinated fluid.
After an adaptation period of 20 minutes, the free end of the bladder cannula was connected to a pressure transducer and a special apparatus which allowed infusion into the urinary bladder of physiological saline at 37° C. at a constant rate of 10 ml/hour. Intravesical pressure changes caused by bladder filling were recorded by the pressure transducer which was connected to a recording polygraph.
From the cystometrograms, the frequency and mean amplitude of spontaneous bladder contractions not inducing micturition, termed “unstable-bladder contractions” (UBC), within 2 minutes prior to micturition were evaluated. […]

COc1ccccc1N1CCN(CCCNC(=O)c2cccc3c(=O)c(C)c(-c4ccccc4)oc23)CC1 [Rec 15/2739]
Relief of LUTS in clinical trial (LUTS): did not result in relief of LUTS
inhibition in vivo at 1 mg/kg ([1]; read-out: % inhibition of amplitude of non-effective micturition contractions): 29%
inhibition in vivo at 1 mg/kg ([1]; read-out: % inhibition of frequency of non-effective micturition contractions): 28%
Amplitude of non-effective micturition contractions, After Treat. ([1]; after treatment, 1.0 mg/kg): 7.3 ± 1.3 mmHg
Frequency (number) of non-effective micturition contractions, After Treat. ([1]; after treatment, 1.0 mg/kg): 4.8 ± 0.2
Activity as inhibitors of unstable-bladder contractions (in words) ([1]; obstructed conscious rats, summary of Tables 1 and 2): poorly active
